This is an account of results in patent US8188082B2, “5,6,7,8-tetrahydro-imidazo[1,5-α]pyrazine derivatives” (Actelion Pharmaceuticals Ltd., priority 2006, dated 2012).

Where only a bound is given, the exact number is not on record here.

In test [1] the target is T1, human orexin-1 receptor (Homo sapiens, UniProt O43613).
T1 construct: expressed in transfected cells; host or cells: CHO cells (G418 selection)
T1 sequence (O43613 1-425): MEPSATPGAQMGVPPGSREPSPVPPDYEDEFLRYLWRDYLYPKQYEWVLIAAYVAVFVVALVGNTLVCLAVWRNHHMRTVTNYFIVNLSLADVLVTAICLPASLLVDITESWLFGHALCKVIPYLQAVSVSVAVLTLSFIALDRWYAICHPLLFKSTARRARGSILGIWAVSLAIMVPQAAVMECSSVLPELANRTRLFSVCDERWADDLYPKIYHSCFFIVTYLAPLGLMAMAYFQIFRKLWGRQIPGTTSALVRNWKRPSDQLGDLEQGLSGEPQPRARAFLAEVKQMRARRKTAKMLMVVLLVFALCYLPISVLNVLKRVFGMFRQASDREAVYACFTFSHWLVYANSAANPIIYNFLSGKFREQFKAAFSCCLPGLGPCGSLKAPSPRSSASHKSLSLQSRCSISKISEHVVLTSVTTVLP
Nature of the test: Intracellular calcium measurements (FLIPR), orexin receptor antagonistic activity, OX1. It counts as cell-based. The settings on record: CHO cells expressing human orexin-1 receptor; 10 nM orexin-A as agonist. On the procedure: (§1) Intracellular Calcium Measurements:
(§2) Chinese hamster ovary (CHO) cells expressing the human orexin-1 receptor and the human orexin-2 receptor, respectively, are grown in culture medium (Ham F-12 with L-Glutamine) containing 300 μg/ml G418, 100 U/ml penicillin, 100 μg/ml streptomycin and 10% inactivated fetal calf serum (FCS). The cells are seeded at 80,000 cells/well into 96-well black clear bottom sterile plates (Costar) which have been precoated with 1% gelatine in Hanks' Balanced Salt Solution (HBSS). All reagents are from Gibco BRL. The seeded plates are incubated overnight at 37° C. in 5% CO2.
(§3) Human orexin-A as an agonist is prepared as 1 mM stock solution in MeOH:water (1:1), diluted in HBSS containing 0.1% bovine serum albumin (BSA) and 2 mM HEPES for use in the assay at a final concentration of 10 nM.
(§4) Antagonists are prepared as 10 mM stock solution in DMSO, then diluted in 96-well plates, first in DMSO, then in HBSS containing 0.1% bovine serum albumin (BSA) and 2 mM HEPES.
(§5) On the day of the assay, 100 μl of loading medium (HBSS containing 1% FCS, 2 mM HEPES, 5 mM probenecid (Sigma) and 3 μM of the fluorescent calcium indicator fluo-3 AM (1 mM stock solution in DMSO with 10% pluronic acid) (Molecular Probes) is added to each well.
(§6) The 96-well plates are incubated for 60 min at 37° C. in 5% CO2. The loading solution is then aspirated and cells are washed 3 times with 200 μl HBSS containing 2.5 mM probenecid, 0.1% BSA, 2 mM HEPES. 100 μl of that same buffer is left in each well.
(§7) Within the Fluorescent Imaging Plate Reader (FLIPR, Molecular Devices), antagonists are added to the plate in a volume of 50 μl, incubated for 20 min and finally 100 μl of agonist is added. Fluorescence is measured for each well at 1 second intervals, and the height of each fluorescence peak is compared to the height of the fluorescence peak induced by 10 nM orexin-A with buffer in place of antagonist. For each antagonist, IC50 value (the concentration of compound needed to inhibit 50% of the agonistic response) is determined.

Test [2] deals with T2, human orexin-2 receptor (Homo sapiens, UniProt O43614).
T2 construct: expressed in transfected cells; host or cells: CHO cells (G418 selection)
T2 sequence (O43614 1-444): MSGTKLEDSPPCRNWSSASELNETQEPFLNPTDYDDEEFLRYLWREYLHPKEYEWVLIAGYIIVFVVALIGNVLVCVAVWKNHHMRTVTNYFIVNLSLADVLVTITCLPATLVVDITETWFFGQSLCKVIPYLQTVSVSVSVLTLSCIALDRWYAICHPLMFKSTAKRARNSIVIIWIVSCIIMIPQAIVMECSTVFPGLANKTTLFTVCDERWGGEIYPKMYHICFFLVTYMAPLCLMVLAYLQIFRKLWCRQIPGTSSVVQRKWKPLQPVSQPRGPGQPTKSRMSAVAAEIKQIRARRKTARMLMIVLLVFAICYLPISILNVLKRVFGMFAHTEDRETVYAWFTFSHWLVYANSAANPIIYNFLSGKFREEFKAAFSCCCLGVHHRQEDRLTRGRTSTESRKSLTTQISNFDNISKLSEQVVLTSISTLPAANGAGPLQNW
Nature of the test: Intracellular calcium measurements (FLIPR), orexin receptor antagonistic activity, OX2. It counts as cell-based. As to conditions: CHO cells expressing human orexin-2 receptor; 10 nM orexin-A as agonist. On the procedure: as §1, §2, §3, §4, §5, §6, §7

For `CNC(=O)[C@@H](c1ccccc1)N1CCn2c(C)nc(Cl)c2C1CCc1ccc(C)c(C)c1` (mixture of isomers) [11 (8S; 2′R)/(8R; 2′R)], the figures for the IC50 in test [1] and in test [2] were 36 nM and 11 nM, respectively.
As for `CNC(=O)[C@@H](c1ccccc1)N1CCn2c(COC)nc(Cl)c2C1CCc1ccc(C(F)(F)F)cc1` (mixture of isomers) [16 (8S; 2′R)/(8R; 2′R)], the values for the IC50 in test [1] and in test [2] were 2060 nM and 33 nM, respectively.
`CNC(=O)[C@@H](c1ccccc1)N1CCn2c(C)nc(C)c2C1CCc1ccc(OC)cc1OC` (mixture of isomers) [25 (8S; 2′R)/(8R; 2′R)]: the values for the IC50 in test [1] and in test [2] were not below 10000 nM and 115 nM, respectively.
With `CNC(=O)[C@@H](c1ccccc1)N1CCn2c(Cl)nc(Cl)c2C1CCc1ccc(C(F)(F)F)cc1` (mixture of isomers) [33 (8S; 2′R)/(8R; 2′R)], the values for the IC50 in test [1] and in test [2] were 279 nM and 11 nM, respectively.
With `CNC(=O)[C@@H](c1ccccc1)N1CCn2c(C)nc(Cl)c2[C@H]1CCc1cc(F)c(C)c(F)c1` [10 (8R; 2′R), (R)-2′-{1-chloro-(R)-8-[2-(3,5-difluoro-4-methyl-phenyl)-ethyl]-3-methyl-5,6-dihydro-8H-imidazo[1,5-a]pyrazin-7-yl}-N-methyl-2′-phenyl-acetamide], the IC50 in test [1] is 72 nM; in test [2], 14 nM.
Take `CCc1nc(C(F)(F)F)c2n1CCN([C@@H](C(=O)NC)c1ccccc1)[C@H]2CCc1ccc(C(F)(F)F)cc1` [15 (8S; 2′R), (R)-2′-{3-ethyl-1-trifluoromethyl-(S)-8-[2-(4-trifluoromethyl-phenyl)-ethyl]-5,6-dihydro-8H-imidazo[1,5-a]pyrazin-7-yl}-N-methyl-2′-phenyl-acetamide]: the IC50 in test [1] amounted to 807 nM; in test [2], 15 nM.
On to `CCc1nc(OC)c2n1CCN([C@@H](C(=O)NC)c1ccccc1)[C@H]2CCc1ccc(C)c(C)c1` [27 (8S; 2′R), (R)-2′-{(S)-8-[2-(3,4-dimethyl-phenyl)-ethyl]-3-ethyl-1-methoxy-5,6-dihydro-8H-imidazo[1,5-a]pyrazin-7-yl}-N-methyl-2′-phenyl-acetamide], for which the results for the IC50 in test [1] and in test [2] were 5 nM and 4 nM, respectively.
With `C=Cc1nc(CC)n2c1[C@H](CCc1ccc(C(F)(F)F)cc1)N([C@@H](C(=O)NC)c1ccccc1)CC2` [28 (8S; 2′R), (R)-2′-{3-ethyl-(S)-8-[2-(4-trifluoromethyl-phenyl)-ethyl]-1-vinyl-5,6-dihydro-8H-imidazo[1,5-a]pyrazin-7-yl}-N-methyl-2′-phenyl-acetamide], the half-inhibitory concentration (IC50) stood at 176 nM in test [1] and 29 nM in test [2].
Take `CCc1nc(Cl)c2n1CCN([C@@H](C(=O)NC)c1ccccc1)[C@H]2CCc1cc(F)c(OC)c(F)c1` [36 (8S; 2′R), (R)-2′-{1-chloro-(S)-8-[2-(3,5-difluoro-4-methoxy-phenyl)-ethyl]-3-ethyl-5,6-dihydro-8H-imidazo[1,5-a]pyrazin-7-yl}-N-methyl-2′-phenyl-acetamide]: the half-maximal inhibitory concentration (IC50) was found to be 17 nM in test [1] and 14 nM in test [2].
`CNC(=O)[C@@H](c1ccccc1)N1CCn2c(C)nc(C#N)c2[C@@H]1CCc1ccc(C(F)(F)F)c(F)c1` [43 (8S; 2′R), (R)-2′-{1-cyano-(S)-8-[2-(3-fluoro-4-trifluoromethyl-phenyl)-ethyl]-3-methyl-5,6-dihydro-8H-imidazo[1,5-a]pyrazin-7-yl}-N-methyl-2′-phenyl-acetamide]: the concentration for half-maximal inhibition (IC50) in test [1] is 538 nM; in test [2], 14 nM.
On to `CNC(=O)[C@@H](c1ccccc1)N1CCn2c(C)nc(C3CC3)c2[C@@H]1CCc1ccc(C(F)(F)F)cc1` [46 (8S; 2′R), (R)-2′-{1-cyclopropyl-3-methyl-(S)-8-[2-(4-trifluoromethyl-phenyl)-ethyl]-5,6-dihydro-8H-imidazo[1,5-a]pyrazin-7-yl}-N-methyl-2′-phenyl-acetamide], for which the IC50 was 762 nM in test [1] and 21 nM in test [2].
Turning to `CCc1nc(Cl)c2n1CCN([C@@H](C(=O)NC)c1ccccc1)[C@H]2COc1cccc(C(F)(F)F)c1` [53 (8R; 2′R), (R)-2′-[1-chloro-3-ethyl-(R)-8-(3-trifluoromethyl-phenoxymethyl)-5,6-dihydro-8H-imidazo[1,5-a]pyrazin-7-yl]-N-methyl-2′-phenyl-acetamide], the IC50 in test [1] amounted to 412 nM; in test [2], 2 nM.
